From patent publication US11787766B2, “Compound having PD-L1 inhibitory activity, preparation method therefor and use thereof” (SHANGHAI ENNOVABIO PHARMACEUTICALS CO., LTD., priority 2017, dated 2023)

target: PD-L1 (Homo sapiens (Human), UniProt Q9NZQ7); experiment: PD-1/PD-L1 homogeneous time-resolved fluorescence (HTRF) binding assay; settings: Cisbio PD1/PD-L1 binding assay kit
Description: PD-1/PD-L1 homogeneous time-resolved fluorescence (HTRF) detection technology was used to detect the binding ability of the compound to PD-L1.
PD1/PD-L1 binding assay kit (Cisbio, Cat #63ADK000CPDEC) was used, which includes two proteins, Tag 1-PD-L1 and Tag 2-PD-1, and two antibodies, Anti-Tag1-Eu^3+ and Anti-Tag2-XL 665. Assay principle: Anti-tag1-Eu^3+ is the HTRF donor, and Anti-Tag2-XL 665 is the HTRF acceptor. When Tag 1-PD-L1 and Tag 2-PD-1 interact, the added HTRF donor and the acceptor are close to each other. After the donor receives the excitation energy, it transfers part of the energy to the acceptor, thus producing 665 nm emission signal. When the compound is added to block the PD1/PD-L1 interaction, only 620 nm emission light was detected. The inhibitory effect of the compound was determined by analyzing the ratio of 665 nm/620 nm. Tag 1-PD-L1 was diluted with Diluent buffer (cat #62DLBDDF) to a working concentration of 10 nM, Tag 2-PD-1 was diluted with Diluent buffer to a working concentration of 500 nM, and Anti-Tag1-Eu^3+ was diluted with detection buffer (cat #62DB1FDG) by 1:100, Anti-Tag2-XL 665 was diluted with detection buffer by 1:20, and the test compound was diluted with Diluent buffer to a final concentration of 2×. In a 384-well plate, 2 μL of compound was added to each well, and then 4 μL of Tag 1-PD-L1, 4 μL of Tag 2-PD-1 were added and incubated at room temperature for 15 minutes. 5 μL Anti-Tag1-Eu^3+ and 5 μL Anti-Tag2-XL 665 were added and incubated overnight at room temperature, and detected with BioTek Synergy™ Neo2 Multifunctional Microplate Reader to obtain the ratio of 665 nm/620 nm. The IC50 curve was fitted by GraphPad Prism 5.02.

PD-L1, sequence (Q9NZQ7 19-238): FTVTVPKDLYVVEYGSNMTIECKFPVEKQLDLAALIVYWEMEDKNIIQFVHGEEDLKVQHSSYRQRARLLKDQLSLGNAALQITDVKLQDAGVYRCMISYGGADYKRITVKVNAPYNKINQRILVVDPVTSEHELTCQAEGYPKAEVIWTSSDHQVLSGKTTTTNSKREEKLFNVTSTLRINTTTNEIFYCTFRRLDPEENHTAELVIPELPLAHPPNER

Row | Structure (SMILES) | IC50
1 | COc1nc(OCc2cccc(-c3cccc(CO)c3C)c2C)ccc1CNC(=O)C(F)(F)F [Compound 1, 2,2,2-trifluoro-N-((6-((3′-(hydroxymethyl)-2,2′-dimethyl-[1,1′-biphenyl]-3-yl)methoxy)-2-methoxypyridin-3-yl)methyl)acetamide] | > 1 µM
2 | COc1nc(OCc2cccc(-c3cccc(COc4ccc(CN)c(OC)n4)c3C)c2C)ccc1CN [Compound 6, ((((2,2′-dimethyl-[1,1′-biphenyl)-3,3′-diyl)bis (methylene))bis (oxo))bis (2-methoxypyridine-6,3-diyl)) dimethylamine] | 0.01 to 0.1 µM
3 | Cc1c(CO)cccc1-c1cccc(COc2cccc(CN)n2)c1C [Compound 7, (3′-(((6-(aminomethyl)pyridin-2-yl)oxo)methyl)-2,2′-dimethyl-[1,1′-biphenyl]-3-yl)methanol] | > 1 µM
4 | COc1nc(OCc2cccc(-c3cccc(CO)c3C)c2C)ccc1N [Compound 8] | > 1 µM
5 | COc1cc(OCc2cccc(-c3cccc(CO)c3C)c2C)cc(OC)c1CNCCNC(C)=O [Compound 10, N-(2-((4-((3′-(hydroxymethyl)-2,2′-dimethyl-[1,1′-biphenyl]-3-yl)methoxy)-2,6-dimethoxybenzyl)amino)ethyl) acetamide] | > 1 µM
6 | COc1cc(N)cc(OCc2cccc(-c3cccc(CO)c3C)c2C)n1 [Compound 12, (3′-(((4-amino-6-methoxypyridin-2-yl)oxo)methyl)-2,2′-dimethyl-[1,1′-biphenyl]-3-yl)methanol] | > 1 µM
7 | Cc1c(CO)cccc1-c1cccc(COc2cccc(N)n2)c1C [Compound 13, (3′(((6-aminopyridin-2-yl)oxo)methyl)-2,2′-dimethyl-[1,1′-biphenyl]-3-yl) methanol] | > 1 µM
8 | COc1nc(OCc2cccc(-c3cccc(CO)c3C)c2C)ccc1CCN [Compound 15, (3′-(((5-(2-aminoethyl)-6-methoxypyridin-2-yl)oxo)methyl)-2,2′-dimethyl-[1,1′-biphenyl]-3-yl) methanol] | 0.1 to 1 µM
9 | COc1nc(OCc2cccc(COc3ccc(CNCCNC(C)=O)c(OC)n3)n2)ccc1CNCCNC(C)=O [Compound 18, N,N-((((((pyridine-2,6-diyl-bis (methylene))bis (oxo))bis (2-methoxypyridine-6,3-diyl))bis (methylene))bis (azetanediyl))bis (ethane-2,1-diyl)) diacetamide] | > 1 µM
10 | COc1nc(OCc2cccc(COc3ccc(CNCCNC(C)=O)c(OC)n3)c2C)ccc1CNCCNC(C)=O [Compound 19] | 0.1 to 1 µM
11 | COc1nc(OCc2cccc(-c3cccc(COc4ccc(CNCC(C)(C)O)c(OC)n4)c3C)c2C)ccc1CNCC(C)(C)O [Compound 20] | 0.01 to 0.1 µM
12 | COc1nc(OCc2cccc(-c3cccc(COc4ccc(CNCCC(N)=O)c(OC)n4)c3C)c2C)ccc1CNCCC(N)=O [Compound 22] | 0.01 to 0.1 µM
13 | COc1nc(OCc2cccc(-c3ccccc3)c2C)ccc1CN [Compound 23] | 0.1 to 1 µM
14 | COc1nc(OCc2cccc(-c3cccc(COc4ccc(CNC5CCCCC5O)c(OC)n4)c3C)c2C)ccc1CNC1CCCCC1O (centres unmarked) [Compound 24] | 0.01 to 0.1 µM
15 | CC(=O)NCCNCC(=O)Nc1cnn(Cc2cccc(-c3cccc(Cn4cc(NC(=O)CNCCNC(C)=O)cn4)c3C)c2C)c1 [Compound 25] | > 1 µM
16 | COc1nc(OCc2cccc(-c3cccc(COc4ccc(CN5CCCC[C@H]5C(=O)O)c(OC)n4)c3C)c2C)ccc1CN1CCCC[C@H]1C(=O)O [Compound 26] | < 0.01 µM

Row | Structure (SMILES) | IC50
17 | COc1nc(OCc2cccc(-c3cccc(COc4ccc(CN5CCCC[C@@H]5C(=O)O)c(OC)n4)c3C)c2C)ccc1CN1CCCC[C@@H]1C(=O)O [Compound 27] | < 0.01 µM
18 | COc1nc(OCc2cccc(-c3cccc(COc4ccc(CNCCNC(C)=O)c(OC)n4)c3C)c2)ccc1CNCCNC(C)=O [Compound 28] | 0.01 to 0.1 µM
19 | COc1nc(OCc2cccc(-n3nc(C)c(COc4ccc(CNCCNC(C)=O)c(OC)n4)c3C)c2C)ccc1CNCCNC(C)=O [Compound 29] | > 1 µM
20 | COc1nc(OCc2cccc(-n3nnc(COc4ccc(CNCCNC(C)=O)c(OC)n4)c3C)c2C)ccc1CNCCNC(C)=O [Compound 31] | > 1 µM
21 | Cc1c(COc2ccc3[nH]c(CO)cc3n2)cccc1-c1cccc(COc2ccc3[nH]c(CO)cc3n2)c1C [Compound 32] | > 1 µM
22 | COc1nc(OCc2cccc(-c3cccc(COc4ccc(CNCC(C)C(=O)O)c(OC)n4)c3C)c2C)ccc1CNCC(C)C(=O)O (centres unmarked) [Compound 33] | 0.01 to 0.1 µM
23 | CC(=O)NCCNCc1cc2nc(OCc3cccc(-c4cccc(COc5ccc6[nH]c(CNCCNC(C)=O)cc6n5)c4C)c3C)ccc2[nH]1 [Compound 34] | 0.01 to 0.1 µM
24 | COc1nc(OCc2cccc(-c3cccc(COc4ccc(CN5CCC5C(=O)O)c(OC)n4)c3C)c2C)ccc1CN1CCC1C(=O)O (centres unmarked) [Compound 35] | < 0.01 µM
25 | COc1nc(OCc2cccc(-c3csc(COc4ccc(CNCCNC(C)=O)c(OC)n4)c3C)c2C)ccc1CNCCNC(C)=O [Compound 36] | < 0.01 µM
26 | COc1nc(OCc2cccc(-c3cccc(COc4ccc(CNC5(C(=O)O)CC5)c(OC)n4)c3C)c2C)ccc1CNC1(C(=O)O)CC1 [Compound 37] | < 0.01 µM
27 | COc1nc(OCc2cccc(-n3cnc(COc4ccc(CNCCNC(C)=O)c(OC)n4)c3C)c2C)ccc1CNCCNC(C)=O [Compound 38] | > 1 µM
28 | COc1nc(OCc2cccc(-c3cccc(COc4ccc(CN5CCCC5CC(=O)O)c(OC)n4)c3C)c2C)ccc1CN1CCCC1CC(=O)O (centres unmarked) [Compound 39] | 0.01 to 0.1 µM
29 | COc1nc(OCc2sc(C)c(COc3ccc(CNCCNC(C)=O)c(OC)n3)c2C)ccc1CNCCNC(C)=O [Compound 40] | > 1 µM
30 | COC(=O)[C@@H]1C[C@H](O)CN1Cc1ccc(OCc2cccc(-c3cccc(COc4ccc(CN5C[C@@H](O)C[C@H]5C(=O)OC)c(OC)n4)c3C)c2C)nc1OC [Compound 41] | 0.01 to 0.1 µM
31 | COc1nc(OCc2cccc(-c3cccc(COc4ccc(CN5CC(O)(C(=O)O)C5)c(OC)n4)c3C)c2C)ccc1CN1CC(O)(C(=O)O)C1 [Compound 42] | < 0.01 µM

Further lines, results first:

Row | IC50 | Structure (SMILES)
32 | < 0.01 µM | COc1nc(OCc2cccc(-c3cccc(COc4ccc(CNCCNC(C)=O)c(OC)n4)c3Cl)c2Cl)ccc1CNCCNC(C)=O [Compound 43]
33 | > 1 µM | COc1nc(OCc2cccc(-n3c(C)nc(COc4ccc(CNCCNC(C)=O)c(OC)n4)c3C)c2C)ccc1CNCCNC(C)=O [Compound 44]
34 | < 0.01 µM | CC(=O)NCCNCc1cc(Cl)c2nc(-c3cccc(-c4cccc(-c5nc6c(Cl)cc(CNCCNC(C)=O)cn6n5)c4C)c3C)nn2c1 [Compound 45]
35 | < 0.01 µM | COc1nc(OCc2cccc(-c3cccc(COc4ccc(CN5C[C@@H](O)C[C@H]5C(=O)O)c(OC)n4)c3Cl)c2Cl)ccc1CN1C[C@@H](O)C[C@H]1C(=O)O [Compound 46]
36 | < 0.01 µM | COc1nc(OCc2cccc(-c3cccc(COc4ccc(CN5C[C@@H](O)C[C@H]5C(=O)O)c(OC)n4)c3C)c2C)ccc1CN1CC[C@H](O)C1 [Compound 47]
37 | 0.1 to 1 µM | COC(=O)[C@@H]1C[C@H](O)CN1Cc1ccc(OCc2cccc(-c3cccc(COc4ccc(CN5C[C@@H](O)C[C@H]5C(=O)OC)c(OC)n4)c3Cl)c2Cl)nc1OC [Compound 48]
38 | < 0.01 µM | COc1nc(OCc2cccc(-c3cccc(COc4ccc(CN[C@@H](CC(N)=O)C(=O)O)c(OC)n4)c3C)c2C)ccc1CN[C@@H](CC(N)=O)C(=O)O [Compound 49]
39 | < 0.01 µM | COc1nc(OCc2cccc(-c3cccc(COc4ccc(CNC(C)(CO)CO)c(OC)n4)c3C)c2C)ccc1CNC(C)(CO)CO [Compound 50]
40 | < 0.01 µM | COc1nc(OCc2cccc(-c3cccc(COc4ccc(CN[C@H](C(=O)O)[C@@H](C)O)c(OC)n4)c3C)c2C)ccc1CN[C@H](C(=O)O)[C@@H](C)O [Compound 51]
41 | 0.01 to 0.1 µM | COc1nc(OCc2cccc(-c3cccc(COc4ccc(CN5CC[C@@H](NC(C)=O)C5)c(OC)n4)c3C)c2C)ccc1CN1CC[C@@H](NC(C)=O)C1 [Compound 52]
42 | 0.1 to 1 µM | COc1nc(OCc2cccc(-c3cccc(COc4ccc(CN5CCCC(C(N)=O)C5)c(OC)n4)c3C)c2C)ccc1CN1CCCC(C(N)=O)C1 (centres unmarked) [Compound 53]
43 | 0.01 to 0.1 µM | COc1nc(OCc2cccc(-c3cccc(COc4ccc(CN5CC[C@H](NC(C)=O)C5)c(OC)n4)c3C)c2C)ccc1CN1CC[C@H](NC(C)=O)C1 [Compound 54]
44 | 0.01 to 0.1 µM | COc1nc(OCc2cccc(-c3cccc(COc4ccc(CNC5CNC(=O)C5)c(OC)n4)c3C)c2C)ccc1CNC1CNC(=O)C1 (centres unmarked) [Compound 55]
45 | < 0.01 µM | COc1nc(OCc2cccc(-c3cccc(COc4ccc(CN5C[C@@H](O)C[C@H]5C(=O)O)c(OC)n4)c3C#N)c2C)ccc1CN1C[C@@H](O)C[C@H]1C(=O)O [Compound 56]
46 | 0.01 to 0.1 µM | COc1nc(OCc2cccc(-c3cccc(COc4ccc(CN5C[C@@H](O)C[C@H]5C(=O)O)c(OC)n4)c3Cl)c2Cl)ccc1CO [Compound 57]
47 | < 0.01 µM | COc1nc(OCc2cccc(-c3cccc(COc4ccc(CN5C[C@@H](O)C[C@H]5C(=O)O)c(OC)n4)c3Cl)c2Cl)ccc1CN1CC[C@H](O)C1 [Compound 58]
